According to patent US11434227B2, “Broad spectrum antibacterial activity of novel bisbenzimidazoles targeting topoisomerase IA and the synergistic composition of bisbenzimidazole with efflux pump inhibitors against pathogenic bacteria” (Jawaharlal Nehru University (JNU), priority 2016, dated 2022):
Converted amounts (≈) assume the structure as drawn. Read-outs that look alike come from different tables or passages of the source.

Columns and labels:
[1] = system: Enterococcus sp. (1367); assay: Susceptibility (MIC50/MIC90), broth microdilution
Procedure: (§1) MICs were determined by the broth microdilution method according to CLSI methods (Clinical and Laboratory Standards Institute, 2005). Inoculants were incubated at 37° C. on cation adjusted Mueller Hinton (MH) Broth for 18 to 24 h. Compound were dissolved in media to 10 doubling dilutions from 128 to 0.125 μg/mL. All the bacterial strains were grown in 96 well plate with low evaporation lid (Falcon, Becton Dickinson) in presence of derivatives of benzimidazoles at 0.125, 0.25, 0.5, 1, 2, 4, 8, 16, 32, 64, 128, 256 μg/mL concentrations. […] Plates were read by Tecan Micro-plate Reader at 600 nm.

[2] = system: S. aureus 1016; assay: Neutropenic thigh infection model; format: in vivo, Balb/c mice
From the text: Craig, was used in this study.

[3] = system: Acinetobacter baumannii (MTCC1920); assay: Susceptibility (MIC50/MIC90), broth microdilution
Procedure: as §1

[4] = system: Klebsiella planticola (K1164); assay: Susceptibility (MIC50/MIC90), broth microdilution
Procedure: as §1

[5] = system: Enterococcus sp. (2105); assay: Susceptibility (MIC50/MIC90), broth microdilution
Procedure: as §1

[6] = system: isogenic efflux deleted strains; assay: Susceptibility of isogenic efflux deleted strains versus wild type; format: cell-based, Escherichia coli; conditions: in comparison to wild type strains
[7] = system: Klebsiella planticola (K235); assay: Susceptibility (MIC50/MIC90), broth microdilution
Procedure: as §1

[8] = system: Enterococcus sp. (1121); assay: Susceptibility (MIC50/MIC90), broth microdilution
Procedure: as §1

[9] = system: E. coli K12; assay: Susceptibility of E. coli K12 and mutants (MIC90); conditions: Escherichia coli
Procedure: as §1

[10] = system: Salmonella typhimurium (MTCC 1251); assay: Susceptibility (MIC50/MIC90), broth microdilution; conditions: Salmonella enterica
Procedure: as §1

[11] = system: Escherichia coli 385; assay: Susceptibility (MIC50/MIC90), broth microdilution
Procedure: as §1

[12] = system: Salmonella typhimurium (St412); assay: Susceptibility (MIC50/MIC90), broth microdilution; conditions: Salmonella enterica
Procedure: as §1

[13] = system: Mycobacterium tuberculosis H37Rv (virulent); assay: Susceptibility of Mycobacterium tuberculosis strains (MIC90); format: cell-based
[14] = system: Mycobacterium tuberculosis H37Ra (avirulent); assay: as above; format: cell-based
[15] = system: Enterococcus sp. (432); assay: Susceptibility (MIC50/MIC90), broth microdilution
Procedure: as §1

[16] = system: E. coli K12 mutant ΔacrA; assay: Susceptibility of E. coli K12 and mutants (MIC90); conditions: Escherichia coli
Procedure: as §1

[17] = system: M. tuberculosis; assay: Effect on virulent and avirulent strains of M. tuberculosis; format: cell-based, Mycobacterium tuberculosis
[18] = system: E. coli K12 mutant ΔompC; assay: Susceptibility of E. coli K12 and mutants (MIC90); conditions: Escherichia coli
Procedure: as §1

[19] = system: Acinetobacter baumannii (AB312); assay: Susceptibility (MIC50/MIC90), broth microdilution
Procedure: as §1

[20] = system: Pseudomonas aeruginosa (MTCC 366); assay: Susceptibility (MIC50/MIC90), broth microdilution; conditions: MTCC366
Procedure: as §1

[21] = system: Escherichia coli 392; assay: Susceptibility (MIC50/MIC90), broth microdilution
Procedure: as §1

[22] = system: E. coli K12 mutant ΔTopIA; assay: Susceptibility of E. coli K12 and mutants (MIC90); conditions: Escherichia coli
Procedure: as §1

[23] = system: Shigella flexineri (MTCC1457); assay: Susceptibility (MIC50/MIC90), broth microdilution; format: cell-based
[24] = system: E. coli ATCC 25922; assay: Neutropenic thigh infection model
Procedure: The neutropenic mice thigh infection model, fully described by. Craig, was used in this study. Female Balb/c mice (6 mice per dosing group) weighing 20-25 g were rendered neutropenic with 2 intraperitoneal injections of cyclophosphamide (150 mg/kg of body weight 4 days prior to bacterial inoculation and 100 mg/kg 1 day before inoculation) 2 h prior to bacterial inoculation. […] Bacteria were injected into the right thigh of each mouse at time zero. […] Neutropenia was defined as an absolute neutrophil count of 500 polymorphonuclear leukocytes/cm^3 of blood. The bacterial suspension was diluted to a concentration of 10^6 CFU/mL with normal saline. Then, 0.1 mL of the bacterial suspension was injected into each posterior thigh muscle 2 h after the second dose of cyclophosphamide was administered. […] Twenty-four hours after drug treatment was begun, the mice were humanely sacrificed. Right thigh muscles from each mouse were aseptically collected, homogenized and serially diluted 1:10 in phosphate buffer saline, and processed for quantitative cultures.

[25] = system: E. coli K12 mutant ΔTopIB; assay: Susceptibility of E. coli K12 and mutants (MIC90); conditions: Escherichia coli
Procedure: as §1

[26] = system: Staphylococcus sp. (976); assay: Susceptibility (MIC50/MIC90), broth microdilution
Procedure: as §1

[27] = system: E. coli K12 mutant ΔemrA; assay: Susceptibility of E. coli K12 and mutants (MIC90); conditions: Escherichia coli
Procedure: as §1

[28] = system: Pseudomonas aeruginosa (Ps162); assay: Susceptibility (MIC50/MIC90), broth microdilution
Procedure: as §1

[29] = system: Staphylococcus sp. (1016); assay: Susceptibility (MIC50/MIC90), broth microdilution
Procedure: as §1

[30] = system: E. coli K12 mutant ΔtolC; assay: Susceptibility of E. coli K12 and mutants (MIC90); conditions: Escherichia coli
Procedure: as §1

[31] = system: Staphylococcus sp. (982); assay: Susceptibility (MIC50/MIC90), broth microdilution
Procedure: as §1

[32] = system: Klebsiella planticola (K589); assay: Susceptibility (MIC50/MIC90), broth microdilution
Procedure: as §1

[33] = system: Pseudomonas aeruginosa (MTCC1688); assay: Susceptibility (MIC50/MIC90), broth microdilution
Procedure: as §1

[34] = system: Enterococcus sp.(1150); assay: Susceptibility (MIC50/MIC90), broth microdilution
Procedure: as §1

[35] = system: Enterococcus sp. (1365); assay: Susceptibility (MIC50/MIC90), broth microdilution
Procedure: as §1

[36] = system: Escherichia coli (ATCC 25922); assay: Susceptibility (MIC, PAE, MBC), broth microdilution
Procedure: as §1

[37] = system: E. coli K12 mutant ΔompF; assay: Susceptibility of E. coli K12 and mutants (MIC90); conditions: Escherichia coli
Procedure: as §1

[38] = system: Acinetobacter baumannii (AB387); assay: Susceptibility (MIC50/MIC90), broth microdilution
Procedure: as §1

[39] = system: Klebsiella planticola (MTCC 2272); assay: Susceptibility (MIC50/MIC90), broth microdilution; conditions: MTCC2272
Procedure: as §1

[40] = system: E. coli 401^R; assay: Susceptibility (MIC, PAE, MBC), broth microdilution
Procedure: as §1

[41] = system: E. coli 81^R; assay: as above
Procedure: as §1

[42] = system: E. coli 151^R; assay: as above
Procedure: as §1

[43] = system: E. coli 132^R; assay: as above
Procedure: as §1

[44] = system: E. coli 59^R; assay: as above
Procedure: as §1

[45] = system: E. coli 451^R; assay: as above
Procedure: as §1

[46] = target: E. coli Topoisomerase IA (Escherichia coli, UniProt P06612); assay: Topoisomerase IA cleavage and religation assay; format: biochemical; conditions: 0.12-2 μM DMA, 5′-32P labeled ssDNA
Procedure: Compounds at different concentrations were added to DNA cleavage reaction mixtures (20 μl) containing 50 mM TrisHCl, pH 7.5, 2 mM MgCl2 0.2 mM DTT, 0.5 mM EDTA, 30 μg/ml BSA, 25 μg/ml of pHOT1 having specific site for DNA, 40 units of E. coli Topoisomerase IA and ligands was incubated at 37° C. for 30 min. The reactions was then terminated by adding 1% SDS and 150 μg/m Proteinase K, and incubated further for 1 h at 37° C. The DNA samples was electrophoresed in 1% agarose gel in 0.5×TBE. Ethidium bromide at a finial concentration of 0.5 μg/ml was included in the gel to resolve slowly migrating nicked product (cleavable complex) from the supercoiled DNA molecules.

[47] = system: E. coli 85^R; assay: Susceptibility (MIC, PAE, MBC), broth microdilution
Procedure: as §1

[48] = system: E. coli 360^R; assay: as above
Procedure: as §1

[49] = system: E. coli 72^R; assay: as above; conditions: Escherichia coli
Procedure: as §1

[50] = target: E. coli Topoisomerase IA (EcTopoIA) (Escherichia coli, UniProt P06612); conditions: reference 5; cited from earlier work
[51] = system: E. coli 118^R; assay: Susceptibility (MIC, PAE, MBC), broth microdilution
[52] = system: E. coli DH5α; assay: as above
Procedure: as §1

[53] = system: E. coli 555^R; assay: as above
Procedure: as §1

[54] = Neutropenic thigh, ATCC 25922, single i.v. bolus, 24 h

E. coli Topoisomerase IA, sequence (P06612 whole entry): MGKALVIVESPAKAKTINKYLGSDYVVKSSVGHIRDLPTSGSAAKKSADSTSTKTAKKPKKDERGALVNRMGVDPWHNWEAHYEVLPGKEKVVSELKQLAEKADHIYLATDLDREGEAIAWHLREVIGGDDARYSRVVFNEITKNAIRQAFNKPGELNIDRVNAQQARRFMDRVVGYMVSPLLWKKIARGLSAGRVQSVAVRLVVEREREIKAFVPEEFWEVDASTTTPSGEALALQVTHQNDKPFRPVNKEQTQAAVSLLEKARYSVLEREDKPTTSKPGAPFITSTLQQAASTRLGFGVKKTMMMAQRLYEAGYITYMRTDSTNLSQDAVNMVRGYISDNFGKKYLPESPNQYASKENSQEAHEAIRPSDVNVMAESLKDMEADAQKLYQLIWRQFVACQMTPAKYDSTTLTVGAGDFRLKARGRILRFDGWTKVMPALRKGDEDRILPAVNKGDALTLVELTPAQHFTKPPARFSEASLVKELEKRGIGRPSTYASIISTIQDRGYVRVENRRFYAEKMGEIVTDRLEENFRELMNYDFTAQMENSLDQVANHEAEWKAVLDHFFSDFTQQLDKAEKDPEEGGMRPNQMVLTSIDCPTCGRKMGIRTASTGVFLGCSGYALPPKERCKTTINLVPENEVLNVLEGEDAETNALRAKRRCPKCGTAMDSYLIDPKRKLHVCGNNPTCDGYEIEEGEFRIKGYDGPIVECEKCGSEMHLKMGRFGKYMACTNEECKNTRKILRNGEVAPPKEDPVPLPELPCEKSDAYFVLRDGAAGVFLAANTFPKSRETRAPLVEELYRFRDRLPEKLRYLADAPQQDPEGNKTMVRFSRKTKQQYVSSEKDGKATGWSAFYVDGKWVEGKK
E. coli Topoisomerase IA (EcTopoIA), sequence (P06612 whole entry): as above

CCCCN1CCN(c2ccc3nc(-c4ccc5[nH]c(-c6ccc(OC)c(OC)c6)nc5c4)[nH]c3c2)CC1 [SP12a, 5-(4-butylpiperazin-1-yl)-2′-(3,4-dimethoxyphenyl)-1H,1′H-2,5′-bibenzo[d]imidazole]
MIC50 [1]: < 0.25 µg/mL
MIC90 [1]: < 0.25 µg/mL
Dose at 1.7 log reduction ([2]; Neutropenic thigh, S. aureus 1016, single i.v. bolus, 24 h): 4 mg/kg bw/day
bacterial load reduction ([2]; balb/c mice neutropenia thigh model, Gram positive S1016): significant bacterial load reduction
MIC50 [3]: 128 µg/mL (≈ 251 µM)
MIC90 [3]: 128 µg/mL (≈ 251 µM)
MIC50 [4]: > 128 µg/mL
MIC90 [4]: 128 µg/mL (≈ 251 µM)
MIC50 [5]: 4.32 µg/mL (≈ 8.46 µM)
MIC90 [5]: 12.2 µg/mL (≈ 23.9 µM)
sensitisation of efflux deleted strains [6]: more sensitised
MIC50 [7]: 3.1 µg/mL (≈ 6.07 µM)
MIC90 [7]: 25.9 µg/mL (≈ 50.7 µM)
MIC50 [8]: < 0.25 µg/mL
MIC90 [8]: 0.88 µg/mL (≈ 1.72 µM)
MIC90 [9]: 16 µg/mL (≈ 31.3 µM)
MIC50 [10]: < 0.25 µg/mL
MIC90 [10]: 0.25 µg/mL (≈ 0.49 µM)
MIC50 [11]: 3.9 µg/mL (≈ 7.64 µM)
MIC90 [11]: 6.5 µg/mL (≈ 12.7 µM)
MIC50 [12]: < 0.25 µg/mL
MIC90 [12]: 0.25 µg/mL (≈ 0.49 µM)
MIC90 [13]: 14.6 µg/mL (≈ 28.6 µM)
MIC90 [14]: 7.3 µg/mL (≈ 14.3 µM)
MIC50 [15]: > 128 µg/mL
MIC90 [15]: > 128 µg/mL
MIC90 [16]: 3.4 µg/mL (≈ 6.66 µM)
effect on M. tuberculosis [17]: effective against M. tuberculosis
MIC90 [18]: 6.7 µg/mL (≈ 13.1 µM)
MIC50 [19]: 4.6 µg/mL (≈ 9.01 µM)
MIC90 [19]: 12.9 µg/mL (≈ 25.3 µM)
MIC50 [20]: < 0.25 µg/mL
MIC90 [20]: < 0.25 µg/mL
MIC50 [21]: 1.5 µg/mL (≈ 2.94 µM)
MIC90 [21]: 13.7 µg/mL (≈ 26.8 µM)
MIC90 [22]: 3.9 µg/mL (≈ 7.64 µM)
MIC50 [23]: 0.24 µg/mL (≈ 0.47 µM)
MIC90 [23]: 0.8 µg/mL (≈ 1.57 µM)
Dose at 0.8 log reduction [24, 54]: 2 mg/kg bw/day
Dose at 3.4 log reduction [24, 54]: 4 mg/kg bw/day
bacterial load reduction ([24]; balb/c mice neutropenia thigh model, gram negative ATCC25922): significant bacterial load reduction
MIC90 [25]: 12.8 µg/mL (≈ 25.1 µM)
MIC50 [26]: < 0.25 µg/mL
MIC90 [26]: 0.4 µg/mL (≈ 0.783 µM)
MIC90 [27]: 7.9 µg/mL (≈ 15.5 µM)
MIC50 [28]: 5.22 µg/mL (≈ 10.2 µM)
MIC90 [28]: > 128 µg/mL
MIC90 [29]: 5.7 ± 0.046 µg/mL (≈ 11.2 µM)
MIC50 ([29]; Staphylococcus): 1.2 µg/mL (≈ 2.35 µM)
MIC90 ([29]; Staphylococcus): 5.7 µg/mL (≈ 11.2 µM)
MIC90 [30]: 0.7 µg/mL (≈ 1.37 µM)
MIC50 [31]: 0.5 µg/mL (≈ 0.979 µM)
MIC90 [31]: 1 µg/mL (≈ 1.96 µM)
MIC50 [32]: 10.3 µg/mL (≈ 20.2 µM)
MIC90 [32]: 29.4 µg/mL (≈ 57.6 µM)
MIC50 [33]: 128 µg/mL (≈ 251 µM)
MIC90 [33]: 128 µg/mL (≈ 251 µM)
MIC50 [34]: < 0.25 µg/mL
MIC90 [34]: < 0.25 µg/mL
MIC50 [35]: < 0.25 µg/mL
MIC90 [35]: < 0.25 µg/mL
MIC90 ([36]; ATCC 25922, Table 6): 7.3 ± 0.024 µg/mL (≈ 14.3 µM)
MIC50 ([36]; Escherichia coli, ATCC25922): 3 µg/mL (≈ 5.87 µM)
MIC90 ([36]; Escherichia coli, ATCC25922): 7.3 µg/mL (≈ 14.3 µM)
MIC90 [37]: 6.5 µg/mL (≈ 12.7 µM)
MIC50 [38]: 3.6 µg/mL (≈ 7.05 µM)
MIC90 [38]: 10.8 µg/mL (≈ 21.1 µM)
MIC50 [39]: 128 µg/mL (≈ 251 µM)
MIC90 [39]: 128 µg/mL (≈ 251 µM)

COc1ccc(-c2nc3cc(-c4nc5ccc(N6CCN(C)CC6)cc5[nH]4)ccc3[nH]2)cc1OC [DMA, 3,4-Dimethoxyphenyl bisbenzimidazole, reference compound]
PAE ([40]; E. coli 401^R): 16 h
MBC ([40]; Escherichia coli): 64 µM (≈ 30 µg/mL)
MIC ([40]; Escherichia coli): 15 µg/mL (≈ 32 µM)
PAE ([41]; E. coli 81^R): 23.6 h
MBC ([41]; Escherichia coli): 32 µM (≈ 15 µg/mL)
MIC ([41]; Escherichia coli): 7.49 µg/mL (≈ 16 µM)
PAE ([42]; E. coli 151^R): 21.6 h
MBC ([42]; Escherichia coli): 32 µM (≈ 15 µg/mL)
MIC ([42]; Escherichia coli): 7.49 µg/mL (≈ 16 µM)
PAE ([43]; E. coli 132^R): 24 h
MBC ([43]; Escherichia coli): 32 µM (≈ 15 µg/mL)
MIC ([43]; Escherichia coli): 7.49 µg/mL (≈ 16 µM)
PAE ([44]; E. coli 59^R): 1.6 h
MBC ([44]; Escherichia coli): 32 µM (≈ 15 µg/mL)
MIC ([44]; Escherichia coli): 7.49 µg/mL (≈ 16 µM)
PAE ([45]; E. coli 451^R): 22 h
MBC ([45]; Escherichia coli): 16 µM (≈ 7.5 µg/mL)
MIC ([45]; Escherichia coli): 3.74 µg/mL (≈ 7.98 µM)
DNA cleavage product formed by EcTopo1A [46]: increased the DNA cleavage product formed by EcTopo1A
PAE ([47]; E. coli 85^R): 24 h
MBC ([47]; Escherichia coli): 16 µM (≈ 7.5 µg/mL)
MIC ([47]; Escherichia coli): 3.74 µg/mL (≈ 7.98 µM)
PAE ([48]; E. coli 360^R): 24 h
MBC ([48]; Escherichia coli): 16 µM (≈ 7.5 µg/mL)
MIC ([48]; Escherichia coli): 3.74 µg/mL (≈ 7.98 µM)
MBC [49]: 16 µM (≈ 7.5 µg/mL)
MIC [49]: 3.74 µg/mL (≈ 7.98 µM)
target specificity [50]: specific Escherichia coli Topoisomerase IA poison inhibitor over Gyrase, Human Topoisomerase I and Human Topoisomerase II
PAE ([51]; E. coli 118^R): 24 h
MBC ([51]; Escherichia coli): 16 µM (≈ 7.5 µg/mL)
MIC ([51]; Escherichia coli): 3.74 µg/mL (≈ 7.98 µM)
PAE ([36]; ATCC 25922): 22.3 h
MBC ([36]; Escherichia coli, ATCC25922): 64 µM (≈ 30 µg/mL)
MIC ([36]; Escherichia coli, ATCC25922): 15 µg/mL (≈ 32 µM)
PAE ([52]; E. coli DH5α): 20.8 h
MBC ([52]; Escherichia coli): 16 µM (≈ 7.5 µg/mL)
MIC ([52]; Escherichia coli): 3.74 µg/mL (≈ 7.98 µM)
PAE ([53]; E. coli 555^R): 24 h
MBC ([53]; Escherichia coli): 64 µM (≈ 30 µg/mL)
MIC ([53]; Escherichia coli): 15 µg/mL (≈ 32 µM)
